For 14 compounds, IC50 results are on record in patent publication US20260365628A1, “SUBSTITUTED 3,4-DIHYDROQUINOLINONE INHIBITORS OF TSHR” (Septerna, Inc., priority 2022, published 2026).

In the assay the target is T1, hTSHR (Homo sapiens, UniProt P16473).
T1 construct: expressed in transfected cells
T1 sequence (P16473 21-764): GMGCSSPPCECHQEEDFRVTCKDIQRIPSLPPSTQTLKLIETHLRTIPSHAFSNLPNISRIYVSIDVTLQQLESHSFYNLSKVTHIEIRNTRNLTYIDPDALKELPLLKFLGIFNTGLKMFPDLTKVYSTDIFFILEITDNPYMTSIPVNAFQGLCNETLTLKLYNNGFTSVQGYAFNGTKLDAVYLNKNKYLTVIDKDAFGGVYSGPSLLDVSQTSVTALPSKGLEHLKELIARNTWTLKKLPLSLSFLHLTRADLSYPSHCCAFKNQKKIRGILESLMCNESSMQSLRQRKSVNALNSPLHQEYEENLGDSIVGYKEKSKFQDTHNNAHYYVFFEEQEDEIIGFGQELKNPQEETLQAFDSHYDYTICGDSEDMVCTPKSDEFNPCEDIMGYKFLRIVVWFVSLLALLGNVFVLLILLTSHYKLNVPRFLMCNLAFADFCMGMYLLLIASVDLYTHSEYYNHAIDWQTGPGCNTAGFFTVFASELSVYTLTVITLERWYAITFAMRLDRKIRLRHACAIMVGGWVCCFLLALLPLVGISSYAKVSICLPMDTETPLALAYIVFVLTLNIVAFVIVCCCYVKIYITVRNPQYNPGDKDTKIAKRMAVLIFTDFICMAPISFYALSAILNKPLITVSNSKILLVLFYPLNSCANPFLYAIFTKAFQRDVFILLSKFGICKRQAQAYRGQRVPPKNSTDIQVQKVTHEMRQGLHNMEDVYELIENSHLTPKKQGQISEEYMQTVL
Briefly: hTSHR TR-FRET cAMP Assay (inhibition of M22-stimulated cAMP production). The assay is classed as cell-based. The conditions noted are these: Expi293F Inducible cells stably expressing hTSHR; cAMP HTRF; stimulated with EC80 of anti-TSHR antibody M22; 15 min compound preincubation, 30 min at 37° C.; read-out: Activity (IC50 bins). The method, boiled down: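 Readout was a cAMP HTRF ratio of 655/620 nm after lysis, scaled between the EC80 M22 signal (0% inhibition) and no-agonist vehicle (100%). Frozen induced Expi293F-hTSHR cells saw test compounds (0.5% DMSO) for 15 min at 37 °C before 30 min of M22 stimulation at EC80.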
In the case of `CC(C)(C)NC(=O)Nc1ccc2c(c1)OCC(=O)N2C(c1ccccc1)C(F)(F)F` (centres unmarked) [Example 296, 1-(tert-butyl)-3-(3-oxo-4-(2,2,2-trifluoro-1-phenylethyl)-3,4-dihydro-2H-benzo[b][1,4]oxazin-7-yl)urea], the IC50 fell in the range of 100 to 1000 nM.

For the compound `COc1cccc([C@H](C)N2C(=O)CCc3cc(NC(=O)NC(C)(C)C)ccc32)c1` [Example 297, (S)-1-(tert-butyl)-3-(1-(1-(3-methoxyphenyl)ethyl)-2-oxo-1,2,3,4-tetrahydroquinolin-6-yl)urea], the half-inhibitory concentration (IC50) fell in the range of 100 to 1000 nM.

For `CC(C)(C)NC(=O)Nc1ccc2c(c1)CCC(=O)N2C1CCOc2ccccc21` (centres unmarked) [Example 298, 1-(tert-butyl)-3-(1-(chroman-4-yl)-2-oxo-1,2,3,4-tetrahydroquinolin-6-yl)urea], the half-maximal inhibitory concentration (IC50) is above 1000 nM. As for `C[C@@H](c1cccc(C(F)(F)F)n1)n1c(=O)cnc2cc(NC(=O)CCc3cccc(C(F)(F)F)c3)ccc21` [Example 299, (S)—N-(2-oxo-1-(1-(6-(trifluoromethyl)pyridin-2-yl)ethyl)-1,2-dihydroquinoxalin-6-yl)-3-(3-(trifluoromethyl)phenyl)propanamide], the IC50 fell in the range of 100 to 1000 nM. Consider `C[C@@H](c1cccc(C(F)(F)F)n1)n1c(=O)cnc2cc(NC(=O)CCC(C)(C)C)ccc21` [Example 300, (S)-4,4-dimethyl-N-(2-oxo-1-(1-(6-(trifluoromethyl)pyridin-2-yl)ethyl)-1,2-dihydroquinoxalin-6-yl)pentanamide], for which the 50% inhibitory concentration (IC50) is 100 to 1000 nM. In the case of `CC(C)(C)NC(=O)Nc1ccc2c(c1)CC(C(F)(F)F)C(=O)N2Cc1ccccc1` (centres unmarked) [Example 301, 1-(1-benzyl-2-oxo-3-(trifluoromethyl)-1,2,3,4-tetrahydroquinolin-6-yl)-3-(tert-butyl)urea], the concentration for half-maximal inhibition (IC50) is above 1000 nM. For the compound `CC(C)(C)NC(=O)Nc1ccc2c(c1)CNC(=O)N2Cc1ccccc1` [Example 302, 1-(1-benzyl-2-oxo-1,2,3,4-tetrahydroquinazolin-6-yl)-3-(tert-butyl)urea], the IC50 is above 1000 nM. Turning to `C[C@H]1Oc2cc(NC(=O)OC3CCCC3)ccc2N([C@@H](C)c2ccccc2)C1=O` [Example 303, cyclopentyl ((R)-2-methyl-3-oxo-4-((S)-1-phenylethyl)-3,4-dihydro-2H-benzo[b][1,4]oxazin-7-yl)carbamate], the 50% inhibitory concentration (IC50) was below 100 nM. To `C[C@H]1Oc2cc(NC(=O)OC3CCCC3)ccc2N(Cc2cccc(C(F)(F)F)n2)C1=O` [Example 304, cyclopentyl N-[(2R)-2-methyl-3-oxo-4-{[6-(trifluoromethyl)pyridin-2-yl]methyl}-2H-1,4-benzoxazin-7-yl]carbamate] belongs below 100 nM; to `CC(C)(C)NC(=O)Nc1ccc2c(c1)OC(CF)C(=O)N2Cc1ccccc1` (centres unmarked) [Example 305, 1-[4-benzyl-2-(fluoromethyl)-3-oxo-2H-1,4-benzoxazin-7-yl]-3-tert-butylurea], 100 to 1000 nM; to `C[C@H](c1cncc(C(F)(F)F)n1)N1C(=O)[C@@H](C)Oc2cc(NC(=O)NC(C)(C)C)ccc21` [Example 307, 1-(tert-butyl)-3-((R)-2-methyl-3-oxo-4-((R)-1-(6-(trifluoromethyl)pyrazin-2-yl)ethyl)-3,4-dihydro-2H-benzo[b][1,4]oxazin-7-yl)urea], 100 to 1000 nM. `CC1(C)CCCC1C(=O)Nc1ccc2c(c1)ncc(=O)n2Cc1ccccc1` (centres unmarked) [Example 308, N-(1-benzyl-2-oxo-1,2-dihydroquinoxalin-6-yl)-2,2-dimethylcyclopentane-1-carboxamide]: the IC50 lay within 100 to 1000 nM. Turning to `CC(C)(C)NC(=O)Nc1ccc2c(c1)CCC(=O)N2C1CCc2ccccc21` (centres unmarked) [Example 309, 1-(tert-butyl)-3-(1-(2,3-dihydro-1H-inden-1-yl)-2-oxo-1,2,3,4-tetrahydroquinolin-6-yl)urea], the half-inhibitory concentration (IC50) fell in the range of 100 to 1000 nM. As for `CC(c1cccc(OC(F)(F)F)c1F)n1c(=O)cnc2cc(NC(=O)NC(C)(C)C)ccc21` (centres unmarked) [Example 312, 1-(tert-butyl)-3-(1-(1-(2-fluoro-3-(trifluoromethoxy)phenyl)ethyl)-2-oxo-1,2-dihydroquinoxalin-6-yl)urea], the half-maximal inhibitory concentration (IC50) fell in the range of 100 to 1000 nM.

One may read the IC50 as the concentration at which inhibition is half-maximal.
